Source: patent publication US20070270462A1, “8-hydroxyquinoline compounds for treating a polyglutamine (polyQ)-expansion disease” (priority 2005, published 2007)

Columns and labels:
Htt exon1-Q103-egfp mRNA = assay: Northern analysis of Htt exon1-Q103-egfp mRNA; format: cell-based; details: Northern analysis after 48 hrs of transfection
Description: Trizol reagent (Invitrogen, Carlsbad, Calif.) was used to isolate total RNA. Ten μg of total RNA was electrophoresed through 1.25% w/v agarose gel and transferred onto Hybond N+membrane. The membrane was baked in an 80° C. oven for 15 min and UV-crosslinked. Exon 1 of htt containing 103 CAA/CAG-repeats was used as a probe for northern blot detection according to AlkPhos Direct Labeling and Detection System (Amersham Biosciences, Piscataway, N.J.). One hundred ng of the probe was hybridized to the membrane in a 60° C. rotating hybridization oven overnight. The membrane was scanned using the Typhoon 9410 digital scanner (Amersham Biosciences, Piscataway, N.J.) to yield the signal image. The experiment was performed three times and band intensities were averaged.
In examining potential mechanisms for the effects of CQ on Htt accumulation, we considered the possibilities that CQ might act to inhibit Htt aggregation or directly influence Htt synthesis or degradation. […] Therefore, we focused on the aspects of Htt synthesis and turnover. To determine whether CQ might down-regulate polyQ-Htt expression at the transcriptional level, we examined the amount of Htt^exon1-Q103-egfp mRNA present after 48 hrs of transfection by Northern analysis. […]

YAC72 mice = format: in vivo
Excerpt: Lower dosages need to be investigated to determine if such doses improve the effect. […] Moreover, since the drug is given as a single daily dose in a water suspension, it is possible that the window of time in which the blood levels are therapeutic may be small, perhaps only a few hours a day. To address these issues, it is proposed to use the R6/2 short term model for a dose-response study and then examine the effects of treatment on the longer term, milder YAC72 model. YAC72 animals carry a portion of a yeast artificial chromosome (YAC) bearing a full-length human htt gene (including the promoter) that is modified with a 72 CAG repeat expansion in exon 1. […]
CQ is delivered blended into food pellets with vitamin B12 supplementation. […] In addition, it is determined what is the average rate of consumption and fluctuations in consumption rate through the course of the day. These parameters are measured periodically in test subjects as well, to allow adjustment of dosing for body weight and food intake. […] Animals are evaluated for a variety of parameters including clasping, rotarod performance, body weight, and survival, and animals are sacrificed at 12 weeks for western and immunohistochemical analysis of huntingtin fragment accumulation and striatal atrophy. […]

Oc1c(I)cc(Cl)c2cccnc12 [CQ, 5-chloro-7-iodo-8-hydroxy-quinoline]
effect on Htt exon1-Q103-egfp mRNA levels (Htt exon1-Q103-egfp mRNA): no significant effect | behavioral and pathologic features (YAC72 mice; YAC72 mice, chronic CQ with B12 supplementation): significantly mitigate the behavioral and pathologic features | tolerability of chronic CQ administration (YAC72 mice; mouse, in vivo): well tolerated
